Values of other authors as cited in US8273721B2, “Combination treatment for bladder cancer” (Endo Pharmaceuticals Solutions Inc., priority 2008, dated 2012).

Compound | solubility in water (water) | solubility in organic solvents (in words) (methylene chloride, ethanol, methanol and acetone) | solubility in water (in words) (water)
O=C(OC1CC2CCC(C1)[N+]21CCCC1)C(O)(c1ccccc1)c1ccccc1.[Cl-] (stereo not drawn) [trospium chloride, spiro[8-azoniabicyclo[3,2,1]octane-8,1′pyrrolidinium]-3-[(hydroxydiphenyl-acetyl)-oxy]chloride(1α, 3β, 5α)(9Cl)] | approximately 1 g/2 mL |  | 
(2S-cis)-2-[1,2,3,4,6,11-hexahydro-2,5,12-trihydroxy-7-methoxy-6,11-dioxo-4-[[2,3,6-trideoxy-3-[(trifluoroacetyl)amino]-α-L-lyxo-hexopyranosyl]oxyl]-2-naphthacenyl]-2-oxoethyl pentanoate [Valrubicin] |  | soluble | relatively insoluble
